{"source": "patent US10800752B2", "about": "“Substituted naphtho[2,3-b]furans as water-soluble prodrugs for preventing and/or treating cancer” (BOSTON BIOMEDICAL, INC., priority 2015, dated 2020)", "key": {"[1]": {"assay": "Evaluation of a conversion rate to 2-acetylnaphtho[2,3-b]furan-4,9-dione in CD1 mouse plasma", "type": "in vitro ADME", "conditions": "CD1 mouse plasma, 1 umol/L, 37° C.", "how_it_was_run": "(§1)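 Compounds at 1 umol/L were incubated at 37° C in human plasma, CD1 mouse plasma or pH 7.4 phosphate buffer, sampled up to 120 minutes, acid/acetonitrile-deproteinised and analysed by LC-MS (ESI positive). Conversion (%) derived from the peak area ratio of the active form to phenytoin internal standard.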"}, "Solution stability test": {"assay": "Solution stability test", "type": "physicochemical", "conditions": "for % Residual ratio: 25 umol/L", "procedure": "For Example 6, Example 11, and Example 22, the stability in each pH was measured. Test compounds at a concentration of 25 umol/L in respective buffer solutions prepared at pH 2.0, 3.0, 5.0, 7.4, and 9.0 were allowed to stand at 25° C. After 0, 3, 6, 9, 12, and 24 hours, they were measured with HPLC.\nThe buffer solutions used at respective pHs are as described below. pH 2.0: 50 mmol/L glycine buffer solution pH 3.0: 50 mmol/L citrate buffer solution pH 5.0: 50 mmol/L citrate buffer solution pH 7.4: 50 mmol/L phosphate buffer solution pH 9.0: 50 mmol/L glycine buffer solution\nThe measurement condition of HPLC is as described below.\nColumn temperature: 40° C.\nMobile phase: A: 0.1% trifluoroacetic acid-containing water"}, "[2]": {"assay": "Evaluation of a conversion rate to 2-acetylnaphtho[2,3-b]furan-4,9-dione in human plasma", "type": "in vitro ADME", "conditions": "1 umol/L, 37° C.", "how_it_was_run": "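Compounds at 1 umol/L incubated at 37° C in human plasma, CD1 mouse plasma or pH 7.4 phosphate buffer, sampled up to 120 minutes. After acidified acetonitrile protein removal, parent loss and conversion to 2-acetylnaphtho[2,3-b]furan-4,9-dione measured by LC-MS (ESI positive).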"}, "Solubility test": {"assay": "Solubility test", "conditions": "50 mmol/L glycine buffer solution (pH 2.0), room temperature, 24 hours shaking", "quoted_text": "A water-soluble prodrug was added into 50 mmol/L glycine buffer solution (pH 2.0). After shaking at room temperature for 24 hours, the mixture was filtered through a membrane filter, and then the filtrate was measured with HPLC.\nThe measurement condition of HPLC is as described below. HPLC condition column: Acquity UPLC BEH C18, 1.7 um, 50×2.1 mm"}, "[3]": {"assay": "Pharmacokinetics test, intravenous administration", "conditions": "for Plasma Compound Concentration: Activated form 1 in plasma, 9.6 mg/kg (i.v.)", "quoted_text": "For water-soluble prodrugs described in the EXAMPLES, the concentration of 2-acetylnaphtho[2,3-b]furan-4,9-dione (Activated form 1) in plasma was measured. Animal species, an administration method, a method of making standard solutions, and a method of measuring the concentration in plasma are as described below.\nAnimal: Seven-week-aged male CD1 (ICR) mice were used as an experimental animal.\nAdministration method: A test substance was weighed, and then dissolved in 50 mmol/L glycine buffered saline (pH 2.0) to produce an administration solution. The body weight of a mouse was measured, and the prepared administration solution was intravenously administered.\nBlood collecting method: Heparin was added to a blood-collecting vessel, and blood was collected from a mouse. To the obtained blood, 46% of Citric acid was added in 1% volume. It was then centrifuged to obtain plasma. To the collected plasma, 1 mol/L HCl was added in 10% volume to produce a plasma sample. A sample obtained by adding 10% volume of 1 mol/L HCl to blank plasma was used as a blank sample.\nMaking of a standard solution: One mg of a test sample was weighed, and dissolved in 10 mL of acetonitrile using a measuring flask to make a standard solution of 100 ug/mL.\nMeasurement of the concentration in plasma: One hundred ug/mL of the standard solution was diluted in 50% acetonitrile solution to make calibration curve samples of target concentrations. Twenty uL of a blank sample was added to 18 uL of the calibration curve sample to make a plasma calibration curve sample. Eighteen uL of 50% acetonitrile solution was added to 20 uL of the administered plasma sample to make a sample for plasma analysis. One hundred uL of acetonitrile (containing 1% volume of 10 mol/L HCl) containing an internal standard was added to the plasma calibration curve sample and the sample for plasma analysis, respectively. It should be noted that phenytoin was used as the internal standard and its concentration was prepared in 100 nmol/L. 10 uL of each sample was analyzed with LC-MS. A calibration curve was made from a value (peak ratio) of the peak area of a test substance in MS divided by the peak area of the internal standard, and the concentrations of plasma calibration curve samples. The concentration in a sample was calculated from the peak ratio of each sample and the calibration curve."}, "[4]": {"assay": "Evaluation of a conversion rate to 2-acetylnaphtho[2,3-b]furan-4,9-dione in pH 7.4 phosphate buffer solution", "type": "physicochemical", "conditions": "1 umol/L, 37° C.", "how_it_was_run": "as §1"}}, "data": [{"molecule": "CC(=O)c1cc2c(OC(=O)NC[C@H](N)C(=O)O)c3ccccc3c(OC(=O)NC[C@H](N)C(=O)O)c2o1.Cl.Cl", "note": "[Example 6]", "values": [{"measurement": "% Measurement value of test compound (decrease rate)", "setting": "[1]; incubation time 0 min", "result": 100, "unit": "%"}, {"measurement": "% Measurement value of test compound (decrease rate)", "setting": "[1]; incubation time 5 min", "result": 0, "unit": "%"}, {"measurement": "% Measurement value of test compound (decrease rate)", "setting": "[1]; incubation time 10 min", "result": 0, "unit": "%"}, {"measurement": "% Measurement value of test compound (decrease rate)", "setting": "[1]; incubation time 30 min", "result": 0, "unit": "%"}, {"measurement": "% Measurement value of test compound (decrease rate)", "setting": "[1]; incubation time 60 min", "result": 0, "unit": "%"}, {"measurement": "% Measurement value of test compound (decrease rate)", "setting": "[1]; incubation time 120 min", "result": 0, "unit": "%"}, {"measurement": "stability in solution (in words)", "setting": "Solution stability test; pH 2.0, 25° C.", "result": "very stable"}, {"measurement": "% Residual ratio", "setting": "Solution stability test; pH 2.0, 25° C., 0 hr", "result": 100, "unit": "%"}, {"measurement": "% Residual ratio", "setting": "Solution stability test; pH 2.0, 25° C., 3 hr", "result": 100, "unit": "%"}, {"measurement": "% Residual ratio", "setting": "Solution stability test; pH 2.0, 25° C., 6 hr", "result": 100, "unit": "%"}, {"measurement": "% Residual ratio", "setting": "Solution stability test; pH 2.0, 25° C., 9 hr", "result": 100, "unit": "%"}, {"measurement": "% Residual ratio", "setting": "Solution stability test; pH 2.0, 25° C., 12 hr", "result": 100, "unit": "%"}, {"measurement": "% Residual ratio", "setting": "Solution stability test; pH 2.0, 25° C., 24 hr", "result": 99.8, "unit": "%"}, {"measurement": "stability in solution (in words)", "setting": "Solution stability test; pH 3.0, 25° C.", "result": "sufficient stability"}, {"measurement": "% Residual ratio", "setting": "Solution stability test; pH 3.0, 25° C., 0 hr", "result": 100, "unit": "%"}, {"measurement": "% Residual ratio", "setting": "Solution stability test; pH 3.0, 25° C., 3 hr", "result": 99.0, "unit": "%"}, {"measurement": "% Residual ratio", "setting": "Solution stability test; pH 3.0, 25° C., 6 hr", "result": 98.2, "unit": "%"}, {"measurement": "% Residual ratio", "setting": "Solution stability test; pH 3.0, 25° C., 9 hr", "result": 97.5, "unit": "%"}, {"measurement": "% Residual ratio", "setting": "Solution stability test; pH 3.0, 25° C., 12 hr", "result": 96.6, "unit": "%"}, {"measurement": "% Residual ratio", "setting": "Solution stability test; pH 3.0, 25° C., 24 hr", "result": 93.6, "unit": "%"}, {"measurement": "% Residual ratio", "setting": "Solution stability test; pH 5.0, 25° C., 0 hr", "result": 100, "unit": "%"}, {"measurement": "% Residual ratio", "setting": "Solution stability test; pH 5.0, 25° C., 3 hr", "result": 27.3, "unit": "%"}, {"measurement": "% Residual ratio", "setting": "Solution stability test; pH 5.0, 25° C., 6 hr", "result": 10.8, "unit": "%"}, {"measurement": "% Residual ratio", "setting": "Solution stability test; pH 5.0, 25° C., 9 hr", "result": 3.6, "unit": "%"}, {"measurement": "% Residual ratio", "setting": "Solution stability test; pH 5.0, 25° C., 12 hr", "result": 0, "unit": "%"}, {"measurement": "% Residual ratio", "setting": "Solution stability test; pH 5.0, 25° C., 24 hr", "result": 0, "unit": "%"}, {"measurement": "% Residual ratio", "setting": "Solution stability test; pH 7.4, 25° C., 0 hr", "result": 100, "unit": "%"}, {"measurement": "% Residual ratio", "setting": "Solution stability test; pH 7.4, 25° C., 3 hr", "result": 0, "unit": "%"}, {"measurement": "% Residual ratio", "setting": "Solution stability test; pH 7.4, 25° C., 6 hr", "result": 0, "unit": "%"}, {"measurement": "% Residual ratio", "setting": "Solution stability test; pH 7.4, 25° C., 9 hr", "result": 0, "unit": "%"}, {"measurement": "% Residual ratio", "setting": "Solution stability test; pH 7.4, 25° C., 12 hr", "result": 0, "unit": "%"}, {"measurement": "% Residual ratio", "setting": "Solution stability test; pH 7.4, 25° C., 24 hr", "result": 0, "unit": "%"}, {"measurement": "% Residual ratio", "setting": "Solution stability test; pH 9.0, 25° C., 0 hr", "result": 100, "unit": "%"}, {"measurement": "% Residual ratio", "setting": "Solution stability test; pH 9.0, 25° C., 3 hr", "result": 0, "unit": "%"}, {"measurement": "% Residual ratio", "setting": "Solution stability test; pH 9.0, 25° C., 6 hr", "result": 0, "unit": "%"}, {"measurement": "% Residual ratio", "setting": "Solution stability test; pH 9.0, 25° C., 9 hr", "result": 0, "unit": "%"}, {"measurement": "% Residual ratio", "setting": "Solution stability test; pH 9.0, 25° C., 12 hr", "result": 0, "unit": "%"}, {"measurement": "% Residual ratio", "setting": "Solution stability test; pH 9.0, 25° C., 24 hr", "result": 0, "unit": "%"}, {"measurement": "% Measurement value of test compound (decrease rate)", "setting": "[2]; Human plasma, incubation time 120 min", "result": 0, "unit": "%"}, {"measurement": "% Measurement value of test compound (decrease rate)", "setting": "[2]; human plasma, incubation time 0 min", "result": 100, "unit": "%"}, {"measurement": "% Measurement value of test compound (decrease rate)", "setting": "[2]; human plasma, incubation time 5 min", "result": 0, "unit": "%"}, {"measurement": "% Measurement value of test compound (decrease rate)", "setting": "[2]; human plasma, incubation time 10 min", "result": 0, "unit": "%"}, {"measurement": "% Measurement value of test compound (decrease rate)", "setting": "[2]; human plasma, incubation time 30 min", "result": 0, "unit": "%"}, {"measurement": "% Measurement value of test compound (decrease rate)", "setting": "[2]; human plasma, incubation time 60 min", "result": 0, "unit": "%"}, {"measurement": "Solubility in pH 2.0 buffer solution", "setting": "Solubility test", "result": 2.8, "unit": "mg/mL"}, {"measurement": "Plasma Compound Concentration", "setting": "[3]; 0.083 hr, animal 1", "result": 4950, "unit": "nM"}, {"measurement": "Plasma Compound Concentration", "setting": "[3]; 0.083 hr, animal 2", "result": 5870, "unit": "nM"}, {"measurement": "Plasma Compound Concentration", "setting": "[3]; 0.083 hr, animal 3", "result": 5790, "unit": "nM"}, {"measurement": "Plasma Compound Concentration", "setting": "[3]; 0.083 hr, mean", "result": 5540, "unit": "nM"}, {"measurement": "Plasma Compound Concentration", "setting": "[3]; 0.5 hr, animal 1", "result": 1170, "unit": "nM"}, {"measurement": "Plasma Compound Concentration", "setting": "[3]; 0.5 hr, animal 2", "result": 1070, "unit": "nM"}, {"measurement": "Plasma Compound Concentration", "setting": "[3]; 0.5 hr, animal 3", "result": 1660, "unit": "nM"}, {"measurement": "Plasma Compound Concentration", "setting": "[3]; 0.5 hr, mean", "result": 1300, "unit": "nM"}, {"measurement": "Plasma Compound Concentration", "setting": "[3]; 1.0 hr, animal 1", "result": 530, "unit": "nM"}, {"measurement": "Plasma Compound Concentration", "setting": "[3]; 1.0 hr, animal 2", "result": 280, "unit": "nM"}, {"measurement": "Plasma Compound Concentration", "setting": "[3]; 1.0 hr, animal 3", "result": 380, "unit": "nM"}, {"measurement": "Plasma Compound Concentration", "setting": "[3]; 1.0 hr, mean", "result": 400, "unit": "nM"}, {"measurement": "Plasma Compound Concentration", "setting": "[3]; 2.0 hr, animal 1", "result": 250, "unit": "nM"}, {"measurement": "Plasma Compound Concentration", "setting": "[3]; 2.0 hr, animal 2", "result": 500, "unit": "nM"}, {"measurement": "Plasma Compound Concentration", "setting": "[3]; 2.0 hr, animal 3", "result": 410, "unit": "nM"}, {"measurement": "Plasma Compound Concentration", "setting": "[3]; 2.0 hr, mean", "result": 390, "unit": "nM"}, {"measurement": "production of 2-acetylnaphtho[2,3-b]furan-4,9-dione (Activated form 1) (in words)", "setting": "[3]; intravenously administered to mice", "result": "rapidly produced"}, {"measurement": "% Measurement value of test compound (decrease rate)", "setting": "[4]; Phosphate buffer solution (pH 7.4), incubation time 120 min", "result": 0, "unit": "%"}, {"measurement": "% Measurement value of test compound (decrease rate)", "setting": "[4]; phosphate buffer solution (pH 7.4), incubation time 0 min", "result": 100, "unit": "%"}, {"measurement": "% Measurement value of test compound (decrease rate)", "setting": "[4]; phosphate buffer solution (pH 7.4), incubation time 5 min", "result": 0, "unit": "%"}, {"measurement": "% Measurement value of test compound (decrease rate)", "setting": "[4]; phosphate buffer solution (pH 7.4), incubation time 10 min", "result": 0, "unit": "%"}, {"measurement": "% Measurement value of test compound (decrease rate)", "setting": "[4]; phosphate buffer solution (pH 7.4), incubation time 30 min", "result": 0, "unit": "%"}, {"measurement": "% Measurement value of test compound (decrease rate)", "setting": "[4]; phosphate buffer solution (pH 7.4), incubation time 60 min", "result": 0, "unit": "%"}]}]}
